Measurements from ChEMBL document CHEMBL4665642, “Anticancer profile of newly synthesized BRAF inhibitors possess 5-(pyrimidin-4-yl)imidazo[2,1-b]thiazole scaffold” (Bioorg Med Chem, 2019).

Assays:
[1] = tested on: SK-MEL-28; assay: Cytotoxicity against human SK-MEL-28 cells assessed as reduction in cell viability by MTT assay; format: functional, cell-based
[2] = tested on: A-375; assay: Cytotoxicity against human A-375 cells assessed as reduction in cell viability by MTT assay; format: functional, cell-based
[3] = tested on: MDA-MB-468; assay: Cytotoxicity against human MDA-MB-468 cells assessed as cell viability at 10 uM incubated for 48 hrs by sulforhodamine B assay relative to control; format: functional; details: read-out: Activity
[4] = tested on: T47D; assay: Cytotoxicity against human T47D cells assessed as cell viability at 10 uM incubated for 48 hrs by sulforhodamine B assay relative to control; format: functional; details: read-out: Activity
[5] = tested on: Hs-578T; assay: Cytotoxicity against human HS-578T cells assessed as cell viability at 10 uM incubated for 48 hrs by sulforhodamine B assay relative to control; format: functional; details: read-out: Activity
[6] = tested on: MDA-MB-231; assay: Cytotoxicity against human MDA-MB-231 cells assessed as cell viability at 10 uM incubated for 48 hrs by sulforhodamine B assay relative to control; format: functional; details: read-out: Activity
[7] = tested on: MCF7; assay: Cytotoxicity against human MCF7 cells assessed as cell viability at 10 uM incubated for 48 hrs by sulforhodamine B assay relative to control; format: functional; details: read-out: Activity
[8] = tested on: DU-145; assay: Cytotoxicity against human DU-145 cells assessed as cell viability at 10 uM incubated for 48 hrs by sulforhodamine B assay relative to control; format: functional; details: read-out: Activity
[9] = tested on: RXF 393; assay: Cytotoxicity against human RXF 393 cells assessed as cell viability at 10 uM incubated for 48 hrs by sulforhodamine B assay relative to control; format: functional; details: read-out: Activity
[10] = tested on: SK-MEL-28; assay: Cytotoxicity against human SK-MEL-28 cells assessed as cell viability at 10 uM incubated for 48 hrs by sulforhodamine B assay relative to control; format: functional; details: read-out: Activity
[11] = tested on: SK-MEL-2; assay: Cytotoxicity against human SK-MEL-2 cells assessed as cell viability at 10 uM incubated for 48 hrs by sulforhodamine B assay relative to control; format: functional; details: read-out: Activity
[12] = tested on: HL-60(TB); assay: Cytotoxicity against human HL-60(TB) cells assessed as cell viability at 10 uM incubated for 48 hrs by sulforhodamine B assay relative to control; format: functional; details: read-out: Activity
[13] = tested on: SR; assay: Cytotoxicity against human SR cells assessed as cell viability at 10 uM incubated for 48 hrs by sulforhodamine B assay relative to control; format: functional; details: read-out: Activity
[14] = tested on: A549; assay: Cytotoxicity against human A549 cells assessed as cell viability at 10 uM incubated for 48 hrs by sulforhodamine B assay relative to control; format: functional; details: read-out: Activity
[15] = tested on: NCI-H226; assay: Cytotoxicity against human NCI-H226 cells assessed as cell viability at 10 uM incubated for 48 hrs by sulforhodamine B assay relative to control; format: functional; details: read-out: Activity
[16] = tested on: NCI-H460; assay: Cytotoxicity against human NCI-H460 cells assessed as cell viability at 10 uM incubated for 48 hrs by sulforhodamine B assay relative to control; format: functional; details: read-out: Activity
[17] = tested on: HCT-15; assay: Cytotoxicity against human HCT-15 cells assessed as cell viability at 10 uM incubated for 48 hrs by sulforhodamine B assay relative to control; format: functional; details: read-out: Activity
[18] = tested on: HCT-29; assay: Cytotoxicity against human […] cells assessed as cell viability at 10 uM incubated for 48 hrs by sulforhodamine B assay relative to control; format: functional; details: read-out: Activity
[19] = tested on: SF-539; assay: Cytotoxicity against human SF-539 cells assessed as cell viability at 10 uM incubated for 48 hrs by sulforhodamine B assay relative to control; format: functional; details: read-out: Activity
[20] = tested on: LOX IMVI; assay: Cytotoxicity against human LOX IMVI cells assessed as cell viability at 10 uM incubated for 48 hrs by sulforhodamine B assay relative to control; format: functional; details: read-out: Activity
[21] = target: RAF proto-oncogene serine/threonine-protein kinase (Homo sapiens, UniProt P04049); assay: Inhibition of human CRAF using MEK1 as substrate by [gamma-33P]-ATP assay
[22] = target: Serine/threonine-protein kinase B-raf (Homo sapiens, UniProt P15056, V600E); assay: Inhibition of human BRAF V600E mutant using MEK1 as substrate by […] assay
[23] = target: Serine/threonine-protein kinase B-raf (Homo sapiens, UniProt P15056); assay: Inhibition of human BRAF using MEK1 as substrate by […] assay
Chain of Serine/threonine-protein kinase B-raf (Homo sapiens, UniProt P15056) (P15056 whole entry): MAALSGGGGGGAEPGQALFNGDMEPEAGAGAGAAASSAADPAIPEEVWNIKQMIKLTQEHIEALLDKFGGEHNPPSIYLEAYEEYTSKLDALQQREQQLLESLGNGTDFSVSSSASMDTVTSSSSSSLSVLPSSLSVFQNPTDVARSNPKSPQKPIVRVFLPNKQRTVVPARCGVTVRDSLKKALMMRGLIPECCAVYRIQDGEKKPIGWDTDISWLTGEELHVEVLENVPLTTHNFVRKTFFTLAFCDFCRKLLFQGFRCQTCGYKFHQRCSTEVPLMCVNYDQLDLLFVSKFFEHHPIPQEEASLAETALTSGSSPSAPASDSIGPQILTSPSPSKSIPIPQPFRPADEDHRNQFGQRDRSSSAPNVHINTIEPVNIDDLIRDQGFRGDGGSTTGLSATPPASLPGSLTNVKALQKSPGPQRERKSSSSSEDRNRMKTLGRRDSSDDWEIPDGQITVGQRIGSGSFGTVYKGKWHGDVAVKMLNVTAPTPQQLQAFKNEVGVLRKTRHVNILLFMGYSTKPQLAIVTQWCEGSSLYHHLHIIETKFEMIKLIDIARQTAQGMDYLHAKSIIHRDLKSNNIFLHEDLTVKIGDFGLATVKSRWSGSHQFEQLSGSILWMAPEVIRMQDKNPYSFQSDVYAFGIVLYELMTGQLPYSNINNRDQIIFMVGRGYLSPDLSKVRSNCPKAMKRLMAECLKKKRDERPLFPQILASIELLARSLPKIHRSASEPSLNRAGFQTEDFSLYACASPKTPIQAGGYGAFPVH

Chain of Serine/threonine-protein kinase B-raf (Homo sapiens, UniProt P15056, V600E) (P15056 2-766 V600E limits assumed): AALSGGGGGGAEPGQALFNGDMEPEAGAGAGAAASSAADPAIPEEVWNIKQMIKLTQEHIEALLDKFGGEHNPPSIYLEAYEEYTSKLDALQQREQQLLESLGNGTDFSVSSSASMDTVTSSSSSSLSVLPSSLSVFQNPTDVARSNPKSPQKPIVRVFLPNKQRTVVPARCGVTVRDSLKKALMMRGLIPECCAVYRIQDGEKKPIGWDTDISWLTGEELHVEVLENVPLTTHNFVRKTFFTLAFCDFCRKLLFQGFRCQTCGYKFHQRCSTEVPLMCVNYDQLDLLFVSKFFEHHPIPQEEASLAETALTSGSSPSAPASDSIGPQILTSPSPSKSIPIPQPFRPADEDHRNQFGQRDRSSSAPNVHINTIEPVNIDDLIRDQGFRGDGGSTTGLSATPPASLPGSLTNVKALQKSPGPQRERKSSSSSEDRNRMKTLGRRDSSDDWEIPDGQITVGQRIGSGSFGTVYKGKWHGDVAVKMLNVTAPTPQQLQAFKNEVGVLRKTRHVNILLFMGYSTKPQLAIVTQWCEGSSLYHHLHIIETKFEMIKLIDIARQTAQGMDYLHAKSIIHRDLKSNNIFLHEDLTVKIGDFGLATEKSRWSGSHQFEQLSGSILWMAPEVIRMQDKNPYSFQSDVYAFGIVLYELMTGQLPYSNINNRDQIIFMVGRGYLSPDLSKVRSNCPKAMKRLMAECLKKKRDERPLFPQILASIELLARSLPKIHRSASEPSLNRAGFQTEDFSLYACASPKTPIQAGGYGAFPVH
Chain of RAF proto-oncogene serine/threonine-protein kinase (P04049 whole entry): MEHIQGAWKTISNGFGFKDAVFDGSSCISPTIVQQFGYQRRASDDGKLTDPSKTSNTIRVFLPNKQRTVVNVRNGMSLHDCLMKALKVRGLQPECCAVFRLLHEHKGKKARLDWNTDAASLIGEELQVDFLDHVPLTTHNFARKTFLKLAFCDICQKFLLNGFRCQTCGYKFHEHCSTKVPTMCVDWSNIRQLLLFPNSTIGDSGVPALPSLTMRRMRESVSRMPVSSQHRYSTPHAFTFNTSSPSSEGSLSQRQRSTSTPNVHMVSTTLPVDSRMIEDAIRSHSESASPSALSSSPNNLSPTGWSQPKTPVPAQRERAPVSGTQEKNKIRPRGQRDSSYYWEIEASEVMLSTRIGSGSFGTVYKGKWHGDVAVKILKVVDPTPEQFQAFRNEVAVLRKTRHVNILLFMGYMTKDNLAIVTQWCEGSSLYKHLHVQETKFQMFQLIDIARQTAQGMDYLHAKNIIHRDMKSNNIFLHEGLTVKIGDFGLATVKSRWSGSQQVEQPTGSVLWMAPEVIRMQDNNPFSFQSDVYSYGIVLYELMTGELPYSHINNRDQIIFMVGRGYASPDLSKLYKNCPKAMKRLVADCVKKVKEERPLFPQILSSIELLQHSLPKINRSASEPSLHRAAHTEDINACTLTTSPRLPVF

**Q.** Which IC50 [1] does the source give for `O=C(NCCCNc1nccc(-c2c(-c3cccc(F)c3)nc3sccn23)n1)c1ccc(F)cc1` here?
**A.** > 20 µM

**Q.** What about the IC50 [2] of the same compound?
**A.** 14.9 µM

**Q.** What about the viability at 10 µM [3] of the same compound?
**A.** 59.2%

**Q.** What about the viability at 10 µM [4] of the same compound?
**A.** 50.6%

**Q.** And the viability at 10 µM [5]?
**A.** 83.2%

**Q.** And the viability at 10 µM [6]?
**A.** 120%

**Q.** What about the viability at 10 µM [7] of the same compound?
**A.** 71.9%

**Q.** What about the viability at 10 µM [8] of the same compound?
**A.** 81.2%

**Q.** What about the viability at 10 µM [9] of the same compound?
**A.** 77.3%

**Q.** And the viability at 10 µM [10]?
**A.** 106%

**Q.** And the viability at 10 µM [11]?
**A.** 95%

**Q.** What about the viability at 10 µM [12] of the same compound?
**A.** 110%

**Q.** What about the viability at 10 µM [13] of the same compound?
**A.** 99.8%

**Q.** And the viability at 10 µM [14]?
**A.** 76.3%

**Q.** And the viability at 10 µM [15]?
**A.** 69%

**Q.** And the viability at 10 µM [16]?
**A.** 95.2%

**Q.** What about the viability at 10 µM [17] of the same compound?
**A.** 65.2%

**Q.** What about the viability at 10 µM [18] of the same compound?
**A.** 60.8%

**Q.** And the viability at 10 µM [19]?
**A.** 99.4%

**Q.** What about the viability at 10 µM [20] of the same compound?
**A.** 79.5%

**Q.** Which results are given for `O=S(=O)(NCCNc1nccc(-c2c(-c3cccc(F)c3)nc3sccn23)n1)c1ccc(C(F)(F)F)cc1`?
**A.** IC50 [21]: 0.0884 µM; IC50 [22]: 0.0223 µM; IC50 [23]: 0.0852 µM; IC50 [1]: 8.45 µM; IC50 [2]: 7.44 µM; viability at 10 µM [3]: 71.3%; viability at 10 µM [4]: 62.5%; viability at 10 µM [5]: 82.6%; viability at 10 µM [6]: 92.8%; viability at 10 µM [7]: 59.3%; viability at 10 µM [8]: 89.2%; viability at 10 µM [9]: 92.1%; viability at 10 µM [10]: 114%; viability at 10 µM [11]: 98.8%; viability at 10 µM [12]: 121%; viability at 10 µM [13]: 89.4%; viability at 10 µM [14]: 72.4%; viability at 10 µM [15]: 82.8%; viability at 10 µM [16]: 94.7%; viability at 10 µM [17]: 72.6%; viability at 10 µM [18]: 62.8%; viability at 10 µM [19]: 103%; viability at 10 µM [20]: 88.9%

**Q.** What does the source list for `Cc1ccc(S(=O)(=O)NCCCNc2nccc(-c3c(-c4cccc(F)c4)nc4sccn34)n2)cc1`?
**A.** IC50 [21]: 0.143 µM; IC50 [22]: 0.089 µM; IC50 [23]: 0.182 µM; IC50 [1]: 9.5 µM; IC50 [2]: 8.38 µM; viability at 10 µM [3]: 78.2%; viability at 10 µM [4]: 34.5%; viability at 10 µM [5]: 84.3%; viability at 10 µM [6]: 84.5%; viability at 10 µM [7]: 69.4%; viability at 10 µM [8]: 77%; viability at 10 µM [9]: 80.3%; viability at 10 µM [10]: 106%; viability at 10 µM [11]: 86.1%; viability at 10 µM [12]: 119%; viability at 10 µM [13]: 102%; viability at 10 µM [14]: 73%; viability at 10 µM [15]: 53.7%; viability at 10 µM [16]: 65.1%; viability at 10 µM [17]: 47.1%; viability at 10 µM [18]: 37.3%; viability at 10 µM [19]: 95.3%; viability at 10 µM [20]: 38%

**Q.** What does the source list for `O=S(=O)(NCCCNc1nccc(-c2c(-c3cccc(F)c3)nc3sccn23)n1)c1ccc(F)cc1`?
**A.** IC50 [1]: > 20 µM; IC50 [2]: 14.5 µM; viability at 10 µM [3]: 77.4%; viability at 10 µM [4]: 18.6%; viability at 10 µM [5]: 90.1%; viability at 10 µM [6]: 94.2%; viability at 10 µM [7]: 70.1%; viability at 10 µM [8]: 84.5%; viability at 10 µM [9]: 85%; viability at 10 µM [10]: 96.9%; viability at 10 µM [11]: 76.6%; viability at 10 µM [12]: 103%; viability at 10 µM [13]: 95.8%; viability at 10 µM [14]: 74%; viability at 10 µM [15]: 56.2%; viability at 10 µM [16]: 87.8%; viability at 10 µM [17]: 44.5%; viability at 10 µM [18]: 46.2%; viability at 10 µM [19]: 115%; viability at 10 µM [20]: 56%

**Q.** Which IC50 [1] does the source give for `O=S(=O)(NCCNc1nccc(-c2c(-c3cccc(F)c3)nc3sccn23)n1)c1ccc(F)cc1` here?
**A.** 9.45 µM

**Q.** What about the IC50 [2] of the same compound?
**A.** 9.45 µM

**Q.** What about the viability at 10 µM [3] of the same compound?
**A.** 63.1%

**Q.** And the viability at 10 µM [4]?
**A.** 40.4%

**Q.** What about the viability at 10 µM [5] of the same compound?
**A.** 68%

**Q.** What about the viability at 10 µM [6] of the same compound?
**A.** 76.6%

**Q.** What about the viability at 10 µM [7] of the same compound?
**A.** 22%

**Q.** What about the viability at 10 µM [8] of the same compound?
**A.** 52.4%

**Q.** And the viability at 10 µM [9]?
**A.** 68.9%

**Q.** What about the viability at 10 µM [10] of the same compound?
**A.** 81.1%

**Q.** What about the viability at 10 µM [11] of the same compound?
**A.** 67.2%

**Q.** What about the viability at 10 µM [12] of the same compound?
**A.** 95.1%

**Q.** What about the viability at 10 µM [13] of the same compound?
**A.** 38%

**Q.** And the viability at 10 µM [14]?
**A.** 32.1%

**Q.** What about the viability at 10 µM [15] of the same compound?
**A.** 45.6%

**Q.** And the viability at 10 µM [16]?
**A.** 35%

**Q.** And the viability at 10 µM [17]?
**A.** 32.2%

**Q.** And the viability at 10 µM [18]?
**A.** 28.7%

**Q.** What about the viability at 10 µM [19] of the same compound?
**A.** 83.2%

**Q.** And the viability at 10 µM [20]?
**A.** 42.8%

**Q.** `O=S(=O)(NCCNc1nccc(-c2c(-c3cccc(F)c3)nc3sccn23)n1)c1ccccc1` was tested. Which IC50 [1] did it give?
**A.** 19 µM

**Q.** And the IC50 [2]?
**A.** 11 µM

**Q.** And the viability at 10 µM [3]?
**A.** 43.6%

**Q.** What about the viability at 10 µM [4] of the same compound?
**A.** 18.8%

**Q.** What about the viability at 10 µM [5] of the same compound?
**A.** 55.5%

**Q.** What about the viability at 10 µM [6] of the same compound?
**A.** 66%

**Q.** And the viability at 10 µM [7]?
**A.** 21.7%

**Q.** What about the viability at 10 µM [8] of the same compound?
**A.** 40%

**Q.** And the viability at 10 µM [9]?
**A.** 64.1%

**Q.** What about the viability at 10 µM [10] of the same compound?
**A.** 54.3%

**Q.** And the viability at 10 µM [11]?
**A.** 51.8%

**Q.** And the viability at 10 µM [12]?
**A.** 63.1%

**Q.** What about the viability at 10 µM [13] of the same compound?
**A.** 29.2%

**Q.** And the viability at 10 µM [14]?
**A.** 25.2%

**Q.** What about the viability at 10 µM [15] of the same compound?
**A.** 34.5%

**Q.** And the viability at 10 µM [16]?
**A.** 25.9%

**Q.** What about the viability at 10 µM [17] of the same compound?
**A.** 25.8%

**Q.** And the viability at 10 µM [18]?
**A.** 23.2%

**Q.** And the viability at 10 µM [19]?
**A.** 65.5%

**Q.** What about the viability at 10 µM [20] of the same compound?
**A.** 36.3%
